Each structure is given as a SMILES string. Several values for one entry are separate records, joined by “and”; a condition that tells them apart may be missing. Equal entries are not always repeated.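 How tested: cells in 96-well plates exposed to compound for 48 hours at five concentrations. GI50: concentration for 50% inhibition of growth. TGI: total growth inhibition.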

Common to all, as to experiment: NCI-60 cell line screen, 48 h
In test [1] the test system is SNB-19 CNS.
Test [2] concerns NCI-H226 lung.
Test [3] relates to IGROV1 ovarian.
Test [4] concerns OVCAR-3 ovarian.
Test [5] relates to SF-268 CNS.
Test [6] deals with TK-10 renal.
Test [7] has as its system SK-MEL-2 melanoma.
The subject of test [8] is SK-MEL-28 melanoma.
Test [9] has as its system M14 melanoma.
The test system of test [10] is UO-31 renal.

In the case of `CCOC(=O)C1=C(C)N(Cc2ccc(Cl)cc2Cl)C2(O)C=CC(=O)C3=C(O)c4ccccc4C(=O)C312` (stereo unspecified), the GI50 in [1] was 9.02 µM; in [2] it was 3.77 µM; in test [3] it was 8.62 µM; in [4], 2.2 µM; in test [5], 6.72 µM; in [6], 3.78 µM. The GI50 in [7] was 38.4 µM; in test [8], 10.6 µM; in [9], 3.97 µM. Further, the TGI in test [1] is 78.7 µM; in test [2], 27.8 µM; in test [3] it was above 100 µM; in [4], 6 µM; in [5], 37.5 µM; in test [6] it was 10.8 µM. Also, the TGI was above 100 µM in test [7], 40.1 µM in test [8] and 69.3 µM in test [9].
Regarding `O=C(Nc1cccc(Cl)c1)c1cccc(NC2=C(Cl)C(=O)N(Cc3ccccc3)C2=O)c1`, the GI50 in [1] was above 100 µM; in test [10], 36.4 µM; in test [2], 22.4 µM; in test [3], 3.12 µM; in test [4] it was 24.3 µM; in test [5], 25.5 µM. For the same compound, the GI50 is 26.7 µM in test [7], above 100 µM in test [8] and 18.3 µM in [9]. Besides, the TGI in test [1] was above 100 µM; in test [10], above 100 µM; in [2] it was above 100 µM; in test [3], 9.81 µM; in test [4], above 100 µM; in test [5] it was 94.4 µM. The TGI in test [7] was 68.6 µM; in test [8], above 100 µM; in test [9], 67.3 µM.
On to `Oc1c(Cl)cc(Cl)cc1C(c1cc(Cl)cc(Cl)c1O)C(Cl)(Cl)Cl`, for which the GI50 in test [1] was 3.23 µM; in test [2], 2.18 µM; in [4], 2.4 µM; in test [5], 2.34 µM; in test [6] it was 4.26 µM; in test [7], 2.72 µM. For the same compound, the GI50 in test [8] is 4.18 µM; in test [9], 3.11 µM. Besides, the TGI in test [1] is 15.8 µM; in [2], 5.89 µM; in test [4] it was 10.8 µM; in test [5] it was 13.8 µM; in test [6], 16 µM; in [7], 12 µM. Further, the TGI in [8] stood at 17.8 µM; in test [9], 10.1 µM.
With `CC(C(N)C(=O)NC(C(=O)O)C1OC(n2ccc(=O)[nH]c2=O)C(O)C1O)C(O)c1ccc(O)cn1` (stereo unspecified), the TGI in test [1], in [10], in test [3], in test [4], in test [5] and in [6] was above 100 µM in each case. Further, the TGI in [7], in test [8] and in test [9] was above 100 µM throughout.
Turning to `NS(=O)(=O)c1ccc(N(/C=C/C(=O)C(F)(F)F)Cc2ccc(Cl)cc2)cc1`, the GI50 is 41.9 µM in test [1]; 15.8 µM in test [10]; 30.3 µM in test [4]; 74.3 µM in test [5]; 23.5 µM in [6]; 27.2 µM in test [7]. Moreover, the GI50 was 29.3 µM in test [8] and 21 µM in test [9]. Also, the TGI was above 100 µM in test [1]; 44.6 µM in test [10]; above 100 µM in test [4]; above 100 µM in test [5]; 55.8 µM in test [6]; 62 µM in test [7]. Moreover, the TGI in [8] is above 100 µM; in test [9], 43.4 µM.
For the compound `CCCCCCCCCCCCCCCCCCOCC(CCP(=O)(CP(=O)(O)O)Oc1ccccc1)OCCCCCCCCCCCCCCCCCC` (stereo unspecified), the TGI in [1], in [2], in test [3], in test [4], in test [5] and in [6] was above 100 µM in each case. Moreover, the TGI in test [8] and in [9] was above 100 µM throughout.
As for `Nc1ccc(-c2cccs2)cc1NC(=O)c1ccc(CCCC(=O)Nc2ccc(C3CC3N)cc2)cc1` (stereo unspecified), the GI50 is 23.3 µM in test [10]; 2.7 µM in [2]; 4.8 µM in test [3]; 1.48 µM in [4]; 2.33 µM in test [5]; 2.44 µM in test [6]. Further, the GI50 in test [7] was 7.28 µM. Further, the TGI in test [10] was above 100 µM; in test [2], 7.57 µM; in [3] it was above 100 µM; in [4], 3.14 µM; in test [5], 5.47 µM; in test [6], 39.2 µM. The compound also returned a TGI in test [7] above 100 µM.
Consider `CO/N=C(\COc1ccc2oc(-c3ccccc3)cc(=O)c2c1)c1ccc(OC)cc1`, for which the GI50 in [10] is 22.8 µM; in test [2], 50.1 µM; in test [3], 17.9 µM; in test [4], 22.7 µM; in test [6], 41.4 µM; in [7], 31 µM. In addition, the GI50 in test [8] was 30.7 µM; in test [9], 21.4 µM. Also, the TGI in test [10] is 58.5 µM; in test [2], above 100 µM; in test [3] it was 42.8 µM; in [4], 71 µM; in [6], above 100 µM; in test [7], above 100 µM. Moreover, the TGI in test [8] is above 100 µM; in test [9], 49.2 µM.
As for `COC(=O)c1cc2c3ccccc3[nH]c2c2sccc12`, the GI50 in test [1] is 23.6 µM; in test [10] it was 7.59 µM; in [2], 68 µM; in test [3], 4.31 µM; in test [4] it was 24.1 µM; in [5] it was 32.4 µM. The GI50 in [6] was 13.8 µM; in test [7] it was 40.8 µM; in [8], 40.4 µM. In addition, the TGI is 79.7 µM in [1]; above 100 µM in [10]; above 100 µM in test [2]; above 100 µM in test [3]; above 100 µM in [4]; above 100 µM in test [5]. The TGI in test [6] was 52.6 µM; in [7], above 100 µM; in test [8], above 100 µM.
In the case of `CCOC(=O)c1cc(-c2ccccc2)[nH]c1N/N=C/c1ccc(Cl)cc1`, the GI50 is above 100 µM in [1]; 73.6 µM in test [10]; above 100 µM in [2]; 95.2 µM in test [3]; above 100 µM in test [4]; above 100 µM in test [5]. In addition, the GI50 in test [6] was above 100 µM; in [7], 62.6 µM; in test [8], above 100 µM. Further, the TGI in test [1], in test [10], in test [2], in test [3], in [4] and in [5] was above 100 µM in each case. In addition, the TGI in test [6], in test [7] and in test [8] was above 100 µM throughout.
On to `COc1ccc2c3c(c(C(=O)c4ccccc4)oc13)CCC2`, for which the TGI in test [1], in test [3], in test [4], in [6], in test [8] and in [9] was above 100 µM throughout.
Consider `CC(C)=CCC/C(C)=C\CCC1(C)OC(=O)C2CC21` (stereo unspecified), for which the TGI is above 100 µM in [1]; above 100 µM in test [10]; > 100 µM and 42.6 µM in test [2]; > 100 µM and 37.2 µM in test [3]; above 100 µM in test [4]; above 100 µM in [5]. The TGI in [6], in test [7] and in [8] was above 100 µM throughout. Besides, the GI50 was 48.4 µM and 18.8 µM in [2]; > 100 µM and 18.2 µM in test [3]; > 100 µM and 37.5 µM in test [8].
In the case of `OCCNc1nc(Nc2ccc(Cl)c(Cl)c2)nc2ccccc12`, the GI50 in test [1] is 5.02 µM; in test [10] it was 4.23 µM; in [2] it was 12.9 µM; in [3] it was 5.14 µM; in [4] it was 7.51 µM; in test [5], 6.78 µM. The results for the GI50 in test [6], in [7] and in test [8] were 14.3 µM, 16.4 µM and 6.38 µM, respectively. The TGI in test [1] was 18.6 µM; in [10] it was 17.9 µM; in [2], 34.2 µM; in test [3], 20 µM; in test [4], 19.9 µM; in test [5] it was 20.8 µM. Also, the TGI in [6] was determined as 27.9 µM; in test [7], 33.1 µM; in [8], 20.7 µM.
Take `CCCN(CCC)c1ccc(/C=N/NC(=O)c2cccnc2)c(OC)c1`: the GI50 in test [1] was 41.6 µM; in test [10], 17.4 µM; in test [2], 32 µM; in [3], 29.3 µM; in test [4], 16.9 µM; in [5], 26 µM. For the same compound, the GI50 in test [6] is 28.7 µM; in test [8], 26.6 µM. Besides, the TGI in test [1] was above 100 µM; in test [10] it was 71.6 µM; in [2] it was above 100 µM; in test [3], above 100 µM; in test [4], 36.7 µM; in test [5], 88.7 µM. The TGI was 90.1 µM in test [6] and 98 µM in test [8].
As to `COc1ccc2oc(C(=O)O)c3c2c1CCC3CCC(=O)O` (stereo unspecified), the TGI was above 100 µM in [1]; above 100 µM in [10]; above 100 µM in [3]; above 1 µM in [4]; above 100 µM in [5]; above 100 µM in [6]. Further, the values for the TGI in test [7], in [8] and in test [9] were above 100 µM, above 100 µM and above 1 µM, respectively.
In the case of `COc1cc(C2=N/C(=C/c3cccs3)C(=O)O2)cc(OC)c1OC`, the TGI in test [1], in test [2], in test [3], in test [4], in test [5] and in [6] was above 100 µM each time. The TGI in test [7], in test [8] and in test [9] was above 100 µM throughout.
Regarding `CC(=O)O[C@H](C[C@H](C(C)C)N(C)C(=O)[C@@H](NC(=O)[C@H]1CCCN1C)C(C)C)c1nc(C(=O)N[C@@H](Cc2ccccc2)C[C@H](C)C(=O)O)c(C)s1`, the GI50 was below 0.00167 µM in test [1]; 0.011 µM in [10]; 0.00241 µM in test [3]; below 0.00167 µM in test [5]; above 16.7 µM in [6]; below 0.00167 µM in test [7]. The GI50 was 0.00557 µM in test [8] and below 0.00167 µM in test [9]. The TGI in test [1], in test [10], in [3], in test [5], in [6] and in [7] was above 16.7 µM in each case. In addition, the TGI in [8] and in [9] was above 16.7 µM each time.
Regarding `CSc1snc2sc3c(Cl)nnnc3c12`, the TGI in [1] amounted to 30.1 µM; in test [10], 25.6 µM; in test [3], 37.3 µM; in [4], 5.72 µM; in test [5] it was 33.2 µM; in [6], 30.9 µM. Besides, the TGI in test [7] worked out at 27.7 µM; in test [8], 23.2 µM; in test [9], 26.3 µM.
Consider `O=C(CC(=O)c1cccc2ccccc12)C(=O)NC1C2CC3CC(C2)CC1C3` (stereo unspecified), for which the TGI in [1], in test [10], in [2], in test [3], in test [4] and in test [5] was above 100 µM throughout. Besides, the TGI in test [6] and in test [9] was above 100 µM in each case.
On to `COc1cc(-c2csc(NC(=O)Nc3ccc(C(F)(F)F)cc3)n2)cc(OC)c1OC`, for which the GI50 in test [1] was 2.69 µM; in test [10], 1.77 µM; in test [2] it was 2.35 µM; in [3], 2.86 µM; in [4], 2 µM; in test [5] it was 2.92 µM. Besides, the results for the GI50 in [7], in [8] and in test [9] were 2.43 µM, 2.22 µM and 2 µM, respectively. Also, the TGI in test [1] came to 12.3 µM; in [10], 5.29 µM; in [2], 8.4 µM; in test [3] it was 13.5 µM; in [4], 5.22 µM; in test [5], 13.7 µM. In addition, the TGI is 5.81 µM in [7], 5.79 µM in test [8] and 5.1 µM in [9].
Regarding `O=NNc1ccc(Sc2ccc(NN=O)cn2)nc1`, the TGI in test [1], in test [10], in test [2], in test [3], in test [4] and in test [5] was above 100 µM throughout. The TGI in test [6], in test [8] and in test [9] was above 100 µM throughout.
